Test results: PubChem BioAssay AID1963963 (Molecular Pharmacology Branch, DTP, NCI, 2024)

Test system: 958667-338-R-J2-PDC tumor spheroids viability
Test: Anticancer human tumor 958667-338-R-J2-PDC patient-derived colon adenocarcinoma cell line growth inhibition [PI3K]
Conditions: spheroids with HUVEC and MSC; for viability, T/C: stronger effect = lower value; active = viability on the fitted dose curve at most 10% of control; inactive = the rest
Summary of the method: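 Tumor cells were combined with HUVEC and MSCs into spheroids, then dosed with PI3K-inhibitor combinations over half-log ranges capped near clinical Cmax or 10 microM.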

[1] = curve of first compound, second compound 0.00316 µM
[2] = curve of first compound, second compound 0.01 µM
[3] = curve of first compound, second compound 0.0316 µM
[4] = curve of first compound, second compound 0.1 µM
[5] = curve of first compound, second compound 0.316 µM
[6] = curve of first compound, second compound 1 µM
[7] = second compound 0.00316 µM, first compound 0.0316 µM
[8] = second compound 0.00316 µM, first compound 0.1 µM
[9] = second compound 0.00316 µM, first compound 0.316 µM
[10] = second compound 0.00316 µM, first compound 1 µM
[11] = second compound 0.01 µM, first compound 0.0316 µM
[12] = second compound 0.01 µM, first compound 0.1 µM
[13] = second compound 0.01 µM, first compound 0.316 µM
[14] = second compound 0.01 µM, first compound 1 µM
[15] = second compound 0.0316 µM, first compound 0.0316 µM
[16] = second compound 0.0316 µM, first compound 0.1 µM
[17] = second compound 0.0316 µM, first compound 0.316 µM
[18] = second compound 0.0316 µM, first compound 1 µM
[19] = second compound 0.1 µM, first compound 0.0316 µM
[20] = second compound 0.1 µM, first compound 0.1 µM
[21] = second compound 0.1 µM, first compound 0.316 µM
[22] = second compound 0.1 µM, first compound 1 µM
[23] = second compound 0.316 µM, first compound 0.0316 µM
[24] = second compound 0.316 µM, first compound 0.1 µM
[25] = second compound 0.316 µM, first compound 0.316 µM
[26] = second compound 0.316 µM, first compound 1 µM
[27] = second compound 1 µM, first compound 0.0316 µM
[28] = second compound 1 µM, first compound 0.1 µM
[29] = second compound 1 µM, first compound 0.316 µM
[30] = second compound 1 µM, first compound 1 µM
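Note: spheroids exposed to compounds for seven days before readout.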

CCN1CCN(Cc2ccc(Nc3ncc(F)c(-c4cc(F)c5nc(C)n(C(C)C)c5c4)n3)nc2)CC1 + COc1c(OCCCN2CCOCC2)ccc2c3n(c(=NC(=O)c4cnc(N)nc4)nc12)CCN3
< 3.16 nM: IC50 [5] | IC50 [6]
4.7 nM: IC50 [4]
inactive: viability, T/C (second compound 0.00316 µM, first compound 0.00316 µM) 100% | viability, T/C (second compound 0.00316 µM, first compound 0.01 µM) 106% | viability, T/C [7] 82.9% | viability, T/C [8] 67.2% | viability, T/C [9] 68.3% | viability, T/C [10] 64.3% | viability, T/C (second compound 0.01 µM, first compound 0.00316 µM) 69.7% | viability, T/C (second compound 0.01 µM, first compound 0.01 µM) 87.8% | viability, T/C [11] 87.8% | viability, T/C [12] 65.5% | viability, T/C [13] 57.4% | viability, T/C [14] 51.5% | viability, T/C (second compound 0.0316 µM, first compound 0.00316 µM) 67.5% | viability, T/C (second compound 0.0316 µM, first compound 0.01 µM) 61.2% | viability, T/C [15] 58.6% | viability, T/C [16] 57.3% | viability, T/C [17] 48.4% | viability, T/C [18] 46.1% | viability, T/C (second compound 0.1 µM, first compound 0.00316 µM) 53.9% | viability, T/C (second compound 0.1 µM, first compound 0.01 µM) 41.4% | viability, T/C [19] 40.1% | viability, T/C [20] 39% | viability, T/C [21] 33.6% | viability, T/C [22] 32.1% | viability, T/C (second compound 0.316 µM, first compound 0.00316 µM) 34.4% | viability, T/C (second compound 0.316 µM, first compound 0.01 µM) 33.4% | viability, T/C [23] 33.8% | viability, T/C [24] 22.3% | viability, T/C [25] 22.2% | viability, T/C [26] 25.3% | viability, T/C (second compound 1 µM, first compound 0.00316 µM) 16.9% | viability, T/C (second compound 1 µM, first compound 0.01 µM) 14.7% | viability, T/C [27] 16.5% | viability, T/C [28] 14.3% | viability, T/C [29] 16.6% | viability, T/C [30] 18.1%
> 1000 nM: IC50 [1] | IC50 [2]
344 nM: IC50 [3]

Cn1nccc1Nc1nccc(-c2ccn(C(CO)c3ccc(Cl)c(F)c3)c(=O)c2)n1 (centres undefined) + CC(Nc1ccc2c(c1)OCCn1cc(N3C(=O)OCC3C(F)F)nc1-2)C(N)=O
> 10000 nM: IC50 [1] | IC50 [3]
2140 nM: IC50 [6]
9950 nM: IC50 [2]
inactive: viability, T/C [7] 91.7% | viability, T/C [8] 81.7% | viability, T/C [9] 112% | viability, T/C [10] 104% | viability, T/C (second compound 0.00316 µM, first compound 3.16 µM) 78.7% | viability, T/C (second compound 0.00316 µM, first compound 10 µM) 69.7% | viability, T/C [11] 108% | viability, T/C [12] 104% | viability, T/C [13] 105% | viability, T/C [14] 102% | viability, T/C (second compound 0.01 µM, first compound 3.16 µM) 75.8% | viability, T/C (second compound 0.01 µM, first compound 10 µM) 49.9% | viability, T/C [15] 101% | viability, T/C [16] 86.4% | viability, T/C [17] 92.4% | viability, T/C [18] 104% | viability, T/C (second compound 0.0316 µM, first compound 3.16 µM) 75.7% | viability, T/C (second compound 0.0316 µM, first compound 10 µM) 74.3% | viability, T/C [19] 102% | viability, T/C [20] 77.5% | viability, T/C [21] 102% | viability, T/C [22] 90.1% | viability, T/C (second compound 0.1 µM, first compound 3.16 µM) 87.4% | viability, T/C (second compound 0.1 µM, first compound 10 µM) 28.6% | viability, T/C [23] 81.5% | viability, T/C [24] 88.9% | viability, T/C [25] 86% | viability, T/C [26] 64.6% | viability, T/C (second compound 0.316 µM, first compound 3.16 µM) 41.9% | viability, T/C (second compound 0.316 µM, first compound 10 µM) 16.9% | viability, T/C [27] 67% | viability, T/C [28] 64% | viability, T/C [29] 70.6% | viability, T/C [30] 53.6% | viability, T/C (second compound 1 µM, first compound 3.16 µM) 47.6%
active: viability, T/C (second compound 1 µM, first compound 10 µM) 6.4%
6570 nM: IC50 [4]
2110 nM: IC50 [5]

Cn1nccc1Nc1nccc(-c2ccn(C(CO)c3ccc(Cl)c(F)c3)c(=O)c2)n1 (centres undefined)
> 10000 nM: IC50 (curve of compound)
inactive: viability, T/C (compound 0.0316 µM) 102% [middle of 4 runs] | viability, T/C (compound 0.316 µM) 95.4% [middle of 4 runs] | viability, T/C (compound 1 µM) 86.6% [middle of 4 runs] | viability, T/C (compound 3.16 µM) 89.5% [middle of 4 runs]
